# Tested on: eIF2-GTP-Met-tRNAi ternary complex
# Experiment: Ternary complex assay (dual luciferase, firefly/renilla ratio) in stable KLN-tTA/pBISA-DL(ATF-4) cells; HTS and hit confirmation
# Assay type: cell-based, mouse
# Parameters: Activity 10 uM / Activity 2.5 uM / Activity 5 uM: unit not given here
# Conditions: confirmed hits of the screen (Table 5); for Activity 5 uM: compound at 5 uM; for Activity 10 uM: compound at 10 uM; for Activity 2.5 uM: compound at 2.5 uM
Compound,Activity 5 uM,Activity 10 uM,Activity 2.5 uM
c1ccc(Nc2nnc(-c3ccc4c(c3)OCO4)o2)cc1 [Compound 326181],5.584,7.027,–
CSC(=Nc1nc2ccc([N+](=O)[O-])cc2s1)SC [Compound 327371],13.29,22.247,–
O=[N+]([O-])c1cccnc1S(=O)(=O)c1ccccn1 [Compound 327414],3.793,6.977,–
CN(C)c1ccc(NC(=O)c2ccccc2O)cc1 [Compound 328479],7.502,7.342,–
Cc1cccc(/C=N/Nc2ccc3ccccc3n2)n1 [Compound 332423],4.287,5.4265,–
Cc1cccc(/C=N/Nc2cc(C)c3ccccc3n2)n1 [Compound 332426],–,3.15,2.37
C/C(=N\NC(=S)N1CCSCC1)c1ccccn1 [Compound 332543],4.083,5.182,–
O=C1C(Cl)=C(Nc2nccs2)C(=O)c2ccccc21 [Compound 337757],6.205,5.978,–
N#C/C(=C/C=C/c1ccccc1)c1ccccc1 [Compound 338119],3.435,5.6885,–
Cc1ccc(/C=C/c2ccc([N+](=O)[O-])cc2)cc1 [Compound 338462],4.54,6.4125,–
COc1ccc2c(Cc3ccccc3)c3[n+](cc2c1OC)CCc1cc2c(cc1-3)OCO2.[Br-] [Compound 338631],–,3.39,1.12
O=C(CC(c1cccnc1)C(C(=O)c1ccc(Cl)cc1)C(CC(=O)c1ccc(Cl)cc1)c1cccnc1)c1ccc(Cl)cc1 (stereo not drawn) [Compound 339119],–,4.42,1.01
C1=C(c2ccccc2)OC(c2ccccc2)=C(c2ccccc2)[P+]1(c1ccccc1)c1ccccc1.[Br-] [Compound 339567],–,11.94,1.94
Cc1ccc(Sc2ccc3ccccc3n2)cc1 [Compound 340215],–,3.11,2.4
CN1/C(=C/C=C/C=C/C2=[N+](C)c3ccccc3C2(C)C)C(C)(C)c2ccccc21.[I-] [Compound 340302],–,4.54,3.29
COc1ccc(N=C(C)C2C(=O)c3ccccc3C2=O)cc1 [Compound 343385],11.2,8.3265,–
CC(=Nc1ccc(F)cc1)C1C(=O)c2ccccc2C1=O [Compound 343386],4.235,5.4775,–
COc1cccc(N=C(C)C2C(=O)c3ccccc3C2=O)c1 [Compound 343387],–,3.33,2.32
O=C(NCC(=O)N1CCCC1)N/N=C/c1ccccc1O [Compound 343979],2.571,3.1255,–
CC(C)[N+](=C1O[B-](c2ccccc2)(c2ccccc2)O[B-]1(c1ccccc1)[C+]1CCCCC1)C(C)C (stereo not drawn) [Compound 344506],–,5.08,0.69
Cc1nc2cc3c(cc2n2cccc12)oc1ccccc13 [Compound 346212],5.376,5.7595,–
Nc1cc2c(cc1-n1cccc1)oc1ccccc12 [Compound 347204],4.246,6.6455,–
Clc1nc2cc3c(cc2n2cccc12)oc1ccccc13 [Compound 347816],3.143,3.5245,–
Br.CN1CCC2(C)CC(Br)(Cc3ccccc32)C1Cl (stereo not drawn) [Compound 349125],–,13.75,0.47

Compound,Activity 5 uM,Activity 10 uM,Activity 2.5 uM
[Cl][Hg][Cl] [Compound 353255],–,–,3.3
C/C(=N\NC(=S)Nc1nccs1)c1ccccn1 [Compound 354087],–,10.14,2.65
O=C(Nc1nc2ccsc2s1)c1ccccc1 [Compound 354215],–,4.14,3.08
c1ccc(-c2cnn3c(-c4ccccc4)cnnc23)cc1 [Compound 355167],–,4.17,3.09
[Cl][Sn]([CH2][Sn]([Cl])([c]1ccccc1)[c]1ccccc1)([c]1ccccc1)[c]1ccccc1 [Compound 356110],2.4,3.9,–
[Br][Sn]([Br])([CH2][Sn]([Br])([c]1ccccc1)[c]1ccccc1)[c]1ccccc1 [Compound 356111],4.4,3.2,–
COc1ccc2nc3cc(Cl)ccc3c(NCCC3CCCN4CCCCC34)c2c1 (stereo not drawn) [Compound 359827],–,6.27,0.61
CSc1ncnc2c(C3OC(COC(C)=O)C(OC(C)=O)C3OC(C)=O)[nH]nc12 (stereo not drawn) [Compound 360648],–,3.85,1.88
CC(C)(C)c1cc(C(O)(C(F)(F)F)C(F)(F)F)c(Cl)c(C(O)(C(F)(F)F)C(F)(F)F)c1 [Compound 361407],–,3.7,0.62
c1cc[c]([Ge]([O][Ge]([c]2ccccc2)[c]2ccccc2)[c]2ccccc2)cc1.c1cc[c]([Ge]([O][Ge]([c]2ccccc2)[c]2ccccc2)[c]2ccccc2)cc1 [Compound 361597],–,17.56,0.32
O=C1c2c(-c3ccccc3)ccc(-c3ccccc3)c2C2(O)OC1(O)c1c(-c3ccccc3)ccc(-c3ccccc3)c1C2=O [Compound 361889],–,12.01,0.88
COc1ccc(N=c2nc3n4c(c(Br)cc(Br)c4n2)NC(C(Br)(Br)Br)=N3)cc1 [Compound 366233],–,30.55,17.26
CC(/C=C/c1cccc(C)c1)=N\NC(N)=O [Compound 366583],2.409,3.134,–
COc1ccc2c(n1)Sc1nc3ccccc3nc1N2 [Compound 367416],6.047,7.3545,–
Br.C/C(=C\c1ccccc1)C(=O)C(CN(C)C)CN(C)C [Compound 367620],–,16.04,0.49
Cc1ccc2nc(-c3ccccc3)c(N=O)n2c1 [Compound 369061],5.137,6.3,–
O=C(Nc1nc2ccc(Cl)cc2[nH]1)c1ccccc1O [Compound 369110],–,6.46,1.84
CC(=Nc1ccc(Cl)cc1N)c1c(O)cc(C)oc1=O [Compound 369331],2.533,2.7605,–
CN(C(=[Se])[Se]C(=[Se])N(C)C1CCCCC1)C1CCCCC1 [Compound 369741],–,6.34,0.96
c1csc(-c2[nH]nc3c2CCc2ccccc2-3)c1 [Compound 370463],–,5.98,4.76
Cn1c2ccccc2c2nnc(N/N=C/c3ccccn3)nc21 [Compound 370589],–,39.54,11.87
Cc1ccc2c(O)c3c(cc2c1O)C(=O)c1ccccc1C3=O [Compound 374924],–,6.35,2.1
C/C(=N\NC(=S)N1CCN(C2CCCCCC2)CC1)c1ccccn1 [Compound 376265],–,7.26,2.72

# — patent US9932300B2, “N,N′-diarylurea compounds and N,N′-diarylthiourea compounds as inhibitors of translation initiation” (President and Fellows of Harvard College, priority 2009, dated 2018)
